Results reported in ChEMBL document CHEMBL1133234, “Synthesis and biological activity of 4'-methoxy derivatives of abscisic acid” (2000).
The source made the active and inactive calls. No cut-off for these calls is given here.

Key:
Type in all cases: functional
[1] = system: Hordeum vulgare subsp. vulgare; experiment: Compound was tested for inhibition of GA-inducible alpha-amylase induction in barley aleurone protoplasts at 0.1 uM
Lepidium sativum [2] = experiment: Compound was tested for inhibition of cress germination at 100 uM
[3] = system: Hordeum vulgare subsp. vulgare; experiment: Compound was tested for inhibition of GA-inducible alpha-amylase induction in barley aleurone protoplasts at 100 uM
[4] = system: Hordeum vulgare subsp. vulgare; experiment: Compound was tested for inhibition of GA-inducible alpha-amylase induction in barley aleurone protoplasts at 10 uM
[5] = system: Hordeum vulgare subsp. vulgare; experiment: Compound was tested for inhibition of GA-inducible alpha-amylase induction in barley aleurone protoplasts at 1 uM
Lepidium sativum [6] = experiment: Compound was tested for inhibition of cress germination at 10 uM
Lepidium sativum [7] = experiment: Compound was tested for inhibition of cress germination at 0.1 uM
Lepidium sativum [8] = experiment: Compound was tested for inhibition of cress germination at 1 uM
[9] = system: Hordeum vulgare subsp. vulgare; experiment: Compound was tested for inhibition of GA3-induced alpha-amylase induction and induction of the accumulation of dehydrin in unstressed barley seeds; Active
[10] = system: Hordeum vulgare subsp. vulgare; experiment: Compound was tested for inhibition of GA3-induced alpha-amylase induction and induction of the accumulation of dehydrin in unstressed barley seeds at 10 uM; Active

inhibition [1] [%] | inhibition [3] [%] | inhibition [4] [%] | inhibition [5] [%] | Activity [9] | Activity [10] | Structure (SMILES) | inhibition at 100 µM (Lepidium sativum [2]) [%] | inhibition at 10 µM (Lepidium sativum [6]) [%] | inhibition at 0.1 µM (Lepidium sativum [7]) [%] | inhibition at 1 µM (Lepidium sativum [8]) [%]
20 | 100 | 90 | 50 | Active | – | CO[C@H]1C=C(C)[C@](O)(/C=C/C(C)=C\C(=O)O)C(C)(C)C1 | ~100 | ~95 | ~20 | ~40
50 | 100 | 100 | 100 | – | Active | CC1=CC(=O)CC(C)(C)[C@@]1(O)/C=C/C(C)=C\C(=O)O (racemic) [(+)-ABSCISIC ACID] | ~100 | ~100 | ~60 | ~80
60 | 100 | 100 | 90 | Active | – | CO[C@@H]1C=C(C)[C@](O)(/C=C/C(C)=C\C(=O)O)C(C)(C)C1 | ~100 | ~95 | ~40 | ~60
